The record followed here is EP0007398A1, “N-thio-N-methyl carbamic acid derivative, process for its preparation, its application and pesticides containing it” (priority 1978, dated 1980).

Read-outs that look alike come from different tables or passages of the source. Some results are limits rather than exact numbers.

For series [1], the system named is Leptinotarsa decemlineata, Kartoffelkäfer. The experiment in a line: Initial activity on potato leaf discs. In kind it is in vivo. Particulars: foliar, 96 h, read-out: % Wirkung. The method, then: Testinsekt: Leptinotarsa decemlineata, Kartoffelkäfer Testmethode: Initialwirkung auf Blattrondellen
Kartoffelblattrondellen werden mit acetonischer Wirk- stofflösung besprüht. Pro Rondelle werden 5 frischgeschlüpfte Larven des ersten Stadiums angesetzt und bei 25°C und 60% rel. Feuchtigkeit inkubiert. Unbehandelte und mit Aceton behandelte Blattrondellen dienen als Kontrolle. Testdauer: 4 Tage. Die Resultate werden ausgedrückt als prozentuale Reduktion der Ueberlebensrate der Larven im Vergleich zu den Kontrollparzellen.

Series [2] has as its system Aedes aegypti, Gelbfiebermücke. The experiment in a line: Initial activity in water against larvae. It is filed as in vivo. Particulars: 168 h. On the procedure:
Testinsekt: Aedes aegypti, Gelbfiebermücke Testmethode: Initialwirkung im Wasser
0,2 ml acetonische Wirkstofflösung werden mit 20 ml Leitungswasser gemischt. Pro Parzelle werden 10 Larven im letzten Larvenstadium angesetzt und bei 25°C und 60% rel. Feuchtigkeit inkubiert bis zum Schlüpfen der Adulten in den Kontrollparzellen. Unbehandeltc und mit Aceton behandelte Parzellen dienen als Kontrollen. Testdauer: 7 Tage. Die Wirkung wird ausgedrückt als prozentuale Reduktion der Zahl normaler Adulter im Vergleich zu den Kontrollparzellen.

The nature of series [3]: Acute oral toxicity in the mouse. Particulars: in vivo, Maus, read-out: akute orale Toxizität. The method, then:
Die Verbindung wirkt als direktes Insektizid. Sie hat auch systemische Aktivität. Sie zeichnet sich unter Praxisbedingungen durch eine besonders günstige Wirkungsdauer aus. Die Verbindung ist ferner von Wert für die Bekämpfung von Schädlingen bei Tieren. So zeigt beispielsweise die Verbindung der Formel I in einer Konzentration von 10^-7 g/ml im Test gegen Aedes aegypti eine Wirkung von 100%. Die akute orale Toxizität an der Maus beträgt mehr als 1000 mg/kg.

The nature of series [4]: UV stability. It is filed as physicochemical. Particulars: qualitative statement.
Series [5] can be described thus: Water solubility. In kind it is physicochemical. Particulars: qualitative statement. The source says:
Die Verbindung der Formel I ist wasserunlöslich und kann nach irgendeiner der für unlösliche Verbindungen üblichen Methoden konfektioniert werden.

Series [6] has as its system Epilachna chrysomelina, Gurkenkäfer. The experiment in a line: Persistence test on treated pumpkin plants (7 days at 30°C with UV irradiation before infestation). It is filed as in vivo. Particulars: 168 h, wettable powder per Beispiel 2, 7 days 30°C + UV, then 10 first-instar larvae per plant, reduction of survival rate vs control, read-out: % Wirkung. On the procedure: Testinsekt: Epilachna chrysomelina, Gurkenkäfer Testmethode: Persistenztest
Kürbispflanzen werden bis zum Abtropfen behandelt. Nach dem Antrocknen werden die Pflanzen in einem Ecophyten bei 30°C und UV-Bestrahlung während 7 Tagen inkubiert. Nach der Inkubation werden pro Pflanze 10 Larven des ersten Stadiums angesetzt. Die Resultate werden ausgedrückt als prozentuale Reduktion der Ueberlebensrate der Epilachna-Larven im Vergleich zu den Kontrollparzellen.
Die Formulierung der Wirkstoffe erfolgte gemäss Beispiel 2. ai = Wirkstoff

Series [7] deals with Leptinotarsa decemlineata, Kartoffelkäfer. Kind of series: Persistence test on treated potato plants (7 days at 30°C with UV irradiation before infestation). It is filed as in vivo. To be noted: 168 h, wettable powder per Beispiel 2, 7 days 30°C + UV, then 10 first-instar larvae per plant, reduction of survival rate vs control, read-out: % Wirkung. On the procedure:
Testinsekt: Leptinotarsa decemlineata, Kartoffelkäfer Testmethode: Persistenztest
Kartoffelpflanzen werden bis zum Abtropfen behandelt. Nach dem Antrocknen werden die Pflanzen in einem Ecophyten bei 30°C und UV-Bestrahlung während 7 Tagen inkubiert. Nach der Inkubation werden pro Pflanze 10 Larven des ersten Stadiums angesetzt. Die Resultate werden ausgedrückt als prozentuale Reduktion der Ueberlebensrate der Leptinotarsa-Larven im Vergleich zu den Kontrollparzellen.
Die Formulierung der Wirkstoffe erfolgte gemäss Beispiel 2 ai = Wirkstoff

On to `CN(SN(C)C(=O)Oc1cccc2c1OC(C)(C)O2)C(=O)Oc1cccc2c1OC(C)(C)O2` [Formel I, Bis-[2,3-(isopropylidendioxy)-phenyl]-thio-bis-N-methylcarbamat], for which, in series [1], the mortality at 1e-09 g/cm2 worked out at 0%, the mortality at 1e-08 g/cm2 was 79% and the mortality at 1e-07 g/cm2 was determined as 100%. Moreover, in series [2] (read-out: % Wirkung), the mortality at 0.01 µg/mL is 13%, the mortality at 0.1 µg/mL turned out to be 100% and the mortality at 1 µg/mL came to 100%. In addition, in series [2] (read-out: Wirkung), the mortality at 0.1 µg/mL was found to be 100%. The LD50 in series [3] was above 1000 mg/kg. The UV-Stabilität result in series [4] is reported as “hohe UV-Stabilität”. For the same molecule, in series [5], the Wasserlöslichkeit result is on record as “wasserunlöslich”.

Consider `CNC(=O)Oc1cccc2c1OC(C)(C)O2` [Formel II], for which the results for the mortality at 0.01 % in series [6] (Konz. 0,01 % ai) and in series [7] (Konz. 0,01 % ai) were 30% and 5%, respectively. In addition, the mortality at 0.03 % in series [6] (Konz. 0,03 % ai) is 100%; in series [7] (Konz. 0,03 % ai), 95%. The mortality at 1e-07 g/cm2 in series [1] (Dosis 10^-7 g ai/cm^2, acetone solution, first-instar larvae, 25°C, 60% rel. humidity, 4 days, reduction of survival rate vs control) was found to be 100%. Further, the mortality at 1e-08 g/cm2 in series [1] (Dosis 10^-8 g ai/cm^2, acetone solution, first-instar larvae, 25°C, 60% rel. humidity, 4 days, reduction of survival rate vs control) turned out to be 8%. The mortality at 1e-09 g/cm2 in series [1] (Dosis 10^-9 g ai/cm^2, acetone solution, first-instar larvae, 25°C, 60% rel. humidity, 4 days, reduction of survival rate vs control) was determined as 0%. Further, the mortality at 1 µg/mL in series [2] (Dosis 10^-6 g ai/ml Wasser, last-instar larvae, 25°C, 7 days, reduction of number of normal adults vs control, read-out: % Wirkung) is 100%. In series [2] (Dosis 10^-7 g ai/ml Wasser, last-instar larvae, 25°C, 7 days, reduction of number of normal adults vs control, read-out: % Wirkung), the mortality at 0.1 µg/mL worked out at 2%. Also, the mortality at 0.01 µg/mL in series [2] (Dosis 10^-8 g ai/ml Wasser, last-instar larvae, 25°C, 7 days, reduction of number of normal adults vs control, read-out: % Wirkung) turned out to be 0%.
